# Test results published in patent publication EP1370276B1, “INTERCELLULAR COMMUNICATION FACILITATING COMPOUNDS AND THEIR MEDICAL USE” (Zealand Pharma A/S, priority 2001, dated 2002).
# Where a SMILES comes first, the peptide text is derived from it. [ ]: non-standard residue; d: D form. The star is where a group is joined. dTyr(3,5-I2) = N[C@H](Cc1cc(I)c(O)c(I)c1)C(=O)O; Dnp = O=[N+]([O-])c1ccc(*)c([N+](=O)[O-])c1; X1 = [N-]=[N+]=Nc1cc(O)c(C(=O)*)cc1I; Hyp = O=C(O)[C@@H]1C[C@@H](O)CN1; dHyp = O=C(O)[C@H]1C[C@H](O)CN1; Sar = CNCC(=O)O
# Key:
# [1] = system: calcium-induced arrythmias; assay: Calcium-induced arrhythmia model in mice (time to 2nd degree AV-block); format: in vivo; set-up: CaCl2 mice Score: scale not given here; conditions: for CaCl2 mice Score / CaCl2 mice In vivo, %: calcium chloride induced arrythmia model; for CaCl2 mice Score: no key for the score; for In vivo activity: maximal effect, increase in time until 2nd degree AV-block relative to vehicle, i.v.
# Protocol: The antiarrhythmic effects of compounds of this invention were tested in an in vivo model of calcium-induced arrythmias according to the model of Lynch et al. ^[37]. […]. Commercial solutions of hypnorm and midazolam were diluted 1:1 in distilled water and one part diluted Hypnorm® is mixed with one part diluted midazolam.
# The anaesthesia was induced by s.c. administration in a dose of […]. An i.v. cannula was inserted into the tail vein. The lead II ECG signal was recorded continuously by positioning of a stainless steel ECG electrodes on the right forelimb and on the left hind limb. The ground electrode was placed on the right hind limb. The signal was amplified (x 5.000-10.000) and filtered (0.1-150 Hz) via a Hugo Sachs Electronic model 689 ECG module. The analogue signal was digitised via a 12 bit data acquisition board (Data Translation model DT321) and sampled at 1000 Hz using the Notocord HEM 3.1 software for Windows NT. After a 10-min equilibration period, the test sample of drug was injected into the tail vein. Mice pre-treated with vehicle were tested as a measure of the control level in untreated animals. The injection volume was 100 µl in all experiments. Infusion of CaCl2 (30 mg/ml, 0.1 ml/min ≈ 100 mg/kg/min (calciumchlorid-2-hydrat, Riedel-de Haën, Germany)) was started 3 min after i.v. administration of drug or vehicle. The time lag to onset of 2nd degree AV-block was determined as the time from the start of CaCl2 infusion until the first arrhythmic event occured. An event of 2nd degree AV-block was defined as intermittent failure of the AV conduction characterised by a P-wave without the concomitant QRS complex.
# Responses were expressed relative to the time until 2nd degree AV-block occurred in vehicle treated mice.
# CHO cells = assay: In situ binding of [125I]AAP10 on intact CHO cells; conditions: overnight at 4° C
# Protocol: CHO cells are seeded in 24-multi well dishes in a density of 7,900 cells/cm^2 (∼ 15,000 cells/well) and grown for 3 Days In Vitro (DIV) in 1 ml/well of F-12K Nutrient Mixture supplemented with 10% Foetal Calf Serum (FCS) and 1000 units penicillin/1000 µg streptomycin (pen/strep) in an atmosphere of 5% CO2 and 100% humidity at 37° C. The cell density has at that time increased to 295,000 cells/cm^2 (152 pgprot/cell ∼ 85 µgprot/well).
# On the day of analysis cells are removed from the incubator and each well is washed twice with, depending on the experiment, either 2 ml pre-warmed (37 °C) or ice-cold (0 °C) D-PBS to remove serum. It is important to keep the period to a minimum during which cells are left without physiological solutions to avoid that they dry out during washing procedures. The cold washed cells are used directly for binding assays while the warm washed cells are used for experiments with glucose and oxygen deprivation.
# The in situ binding is performed by a modified protocol based on the description by Koenig. […] Cells incubate overnight at 4° C to reach equilibrium. Each well, one at the time, is then rinsed rapidly with 2 x 1 ml D-PBS and left to dry.
# 0.25 ml of 0.5 % Triton-X-100 (v/v) is added to each well and cells left for at least 1 h to solubilize. The extract is transferred to counting vials, the wells rinsed with 0.25 ml water and the rinse extract added to the corresponding vials. The vials are counted in a γ-counter. Table 3. In situ binding, IC50 (nM).
# [2] = biological target: murine heart tissue preparations; assay: Displacement of [125I]AAP10 from murine heart tissue preparations; format: binding, mice; conditions: displacement of 0.8 nM [125I]AAP10, filtrate; read-out: Filtrate IC50
# Protocol: Hearts are excised from mice (Balb/cJ, 20 g), rinsed twice in ice-cold (0°C) 0.32 M sucrose and homogenized on ice in 10 volumes of sucrose with an Ultra Turrax homogeniser (1000 rpm) for 2 minutes. The homogenate is centrifuged at 1000 gmea" for 10 minutes at 4° C and the supernatant collected and filtrated through 4 layers of gauze. The filtrate is then centrifuged at 50,000 gmean for 45 min at 4° C and the pellet resuspended in 10 volorg. wet weight ice-cold distilled water and incubated for 60 min at 0° C and re-centrifuged at 50,000 gmean at 45 min at 4° C. The resulting pellet is resuspended in 2 vol org. wet weight of PBS (Phosphate Buffered Saline) and stored at - 80° C until use.
# [3] = system: cAMP formation in CHO cells; assay: Inhibition of forskoline stimulated cAMP formation in CHO cells; format: cell-based; conditions: 10 µM forskoline, 20 min, cells pre-treated with glucose and oxygen deprivation
# Protocol: CHO cells are seeded in 96-well microtiter plates in a density of 6,000 cells/cm^2 (∼ 2,000 cells/well) and grown for 4 days in vitro in 200 µl/well of growth media as described in the previous section.
# On the day of analysis cells are removed from the incubator and washed twice with 200 µl pre-warmed (37°C) D-PBS (pH 7.2) to remove serum. Cells are incubated for 10 min in glucose free D-PBS and an N2-atmosphere as described in the previous section.
# CHO cells are incubated at 37° C in D-PBS (pH 7.2) containing 6 mM glucose, 2.0 mM IBMX (phospodiesterase blocker), 10 µM forskoline (stimulates cAMP formation) and increasing concentrations of test peptide. The reaction is stopped after 20 min by addition of 20 µl 0.5 M HCl and left for at least 20 min at room temperature.
# The content of cAMP is analysed by mixing 20 µl of the acid cell extract into FlashPlate™ wells (NEN assay kit SMP001) containing 180 µl [^12SI]cAMP tracer solution. FlashPlates™ are incubated overnight at 4° C and plate bound radioactivity counted in TopCount (Packard Instrument). Data are calculated as described in the previous section.
Compound,CaCl2 mice Score [1],"CaCl2 mice In vivo, % [1]",further results
"3-(4-hyd roxyphenyl)propionyl-Pro-Hyp-Gly-Ala-Gly-OH [HP5, reference compound]",2,–,In vivo activity [1]: ++ (++ refers to 30-50% increase in time until arrhythmia)
CC(=O)NCC(=O)N[C@@H](CC(=O)O)C(=O)N[C@@H](CC(N)=O)C(=O)N[C@@H](Cc1ccc(O)cc1)C(N)=O [Ac-G-D-N-Y-NH2] (Ac-GDNY-NH2),1,–,–
CC(=O)N[C@@H](Cc1ccc(O)cc1)C(=O)N[C@@H](CC(=O)O)C(=O)N[C@@H](CC(N)=O)C(=O)NCC(N)=O [Ac-Y-D-N-G-NH2] (Ac-YDNG-NH2),1,–,–
CC(=O)N[C@@H](Cc1ccc(O)cc1)C(=O)N[C@H](CC(N)=O)C(=O)NCC(=O)O [Ac-Y-DN-G-OH] (Ac-Tyr-[dN]-Gly-OH),2,–,–
"CC(=O)N[C@@H](Cc1ccc(O)cc1)C(=O)N1CCC[C@H]1C(=O)N1C[C@H](O)C[C@H]1C(=O)NCC(=O)N[C@@H](C)C(=O)NCC(=O)O [Compound 1, Ac-Tyr-Pro-4Hyp-Gly-Ala-Gly-OH] (Ac-YP[Hyp]GAG-OH)",1,–,–
"CC(=O)N[C@H](Cc1cc(I)c(O)c(I)c1)C(=O)N1CCC[C@@H]1C(=O)N1C[C@@H](O)C[C@@H]1C(=O)NCC(=O)N[C@H](C)C(=O)NCC(N)=O [Compound 24] (Ac-[dTyr(3,5-I2)][dP][dHyp]G[dA]G-NH2)",–,–,IC50 (CHO cells): 65 nM
C[C@H](NC(=O)CNC(=O)[C@@H]1C[C@@H](O)CN1C(=O)[C@@H]1CCCN1C(=O)c1cc(I)c(N=[N+]=[N-])cc1O)C(=O)NCC(N)=O [Compound 32] (X1-P[Hyp]GAG-NH2),–,–,IC50 (CHO cells): 0.5 nM
C[C@H](NC(=O)CN)C(=O)NCC(=O)N1C[C@H](O)C[C@H]1C(=O)N1CCC[C@H]1C(=O)N[C@@H](Cc1ccc(O)cc1)C(=O)N[C@@H](CC(N)=O)C(N)=O [H-AAP-10-Asn-NH2] (H-GAG[Hyp]PYN-NH2),2,–,–
NCC(=O)N[C@H](CC(N)=O)C(=O)N[C@@H](Cc1ccc(O)cc1)C(N)=O [H-G-DN-Y-NH2] (H-Gly-[dN]-Tyr-NH2),2,–,–
C[C@H](NC(=O)CN)C(=O)N(C)CC(=O)N1C[C@H](O)C[C@H]1C(=O)N1CCC[C@H]1C(=O)N[C@@H](Cc1ccc(O)cc1)C(N)=O [H-GA-Sar-Hyp-PY-NH2] (H-GA[Sar][Hyp]PY-NH2),2,46 +/- 11%,–
C[C@H](NC(=O)CN)C(=O)N[C@@H](CC(N)=O)C(=O)N[C@@H](Cc1ccc(O)cc1)C(N)=O [H-GANY-NH2] (H-GANY-NH2),1,–,–
NCC(=O)NCC(=O)N[C@@H](Cc1ccc(O)cc1)C(N)=O [H-GGY-NH2] (H-Gly-Gly-Tyr-NH2),2,–,–
NCC(=O)N[C@@H](CCCCNc1ccc([N+](=O)[O-])cc1[N+](=O)[O-])C(=O)N[C@@H](Cc1ccc(O)cc1)C(N)=O [H-GK(DNP)Y-NH2] (H-Gly-Lys(Dnp)-Tyr-NH2),1,–,–
C[C@H](NC(=O)CNC(=O)[C@H](CC(N)=O)NC(=O)[C@H](Cc1ccc(O)cc1)NC(=O)[C@@H]1CCCN1C(=O)[C@@H]1C[C@@H](O)CN1)C(=O)NCC(N)=O [H-HypPYNGAG-NH2] (H-[Hyp]PYNGAG-NH2),2,34 +/- 10%,–
CNCC(=O)N[C@@H](C)C(=O)N(C)CC(=O)N1C[C@H](O)C[C@H]1C(=O)N1CCC[C@H]1C(=O)N[C@@H](Cc1ccc(O)cc1)C(N)=O [H-Sar-A-Sar-Hyp-PY-NH2] (H-[Sar]A[Sar][Hyp]PY-NH2),1,24 +/- 7%,–
NC(=O)C[C@@H](NC(=O)[C@@H](N)Cc1ccc(O)cc1)C(=O)NCC(=O)O [H-Y-DN-G-OH] (H-Tyr-[dN]-Gly-OH),2,–,–
NC(=O)CNC(=O)[C@H](CC(N)=O)NC(=O)[C@@H](N)Cc1ccc(O)cc1 [H-YNG-NH2] (H-Tyr-Asn-Gly-NH2),2,–,–

Compound,CaCl2 mice Score [1],"CaCl2 mice In vivo, % [1]",further results
"C[C@H](NC(=O)CN)C(=O)NCC(=O)N1CCC[C@@H]1C(=O)N[C@@H](C)C(=O)N[C@@H](Cc1ccc(O)cc1)C(N)=O [H-[D-Pro^4, Ala^5]AAP-10-NH2] (H-GAG[dP]AY-NH2)",1,29 +/- 12%,–
AcGNY,2,46 +/- 9%,–
CF3C(O)-AAP10-NH2,3,–,–
Cyclo(retro-AAP-10-Asn),2,59 +/- 9%,–
GNY,2,58 +/- 10%,–
H-AAP-10-K6-OH,3,64 +/- 10%,–
H-DY-DN-G-NH2,1,–,–
H-GAG-DHyp-DProY-NH2,2,49 +/- 6%,–
H-GAG-DHypAY-NH2,1,29 +/- 9%,–
H-GAGGPY-NH2 [H-GAGGPY-NH2],2,–,–
"H-GP[Hyp]GAG-OH [AAP, reference compound]",2,–,IC50 [2]: 1.2 nM; IC50 (CHO cells): 0.8 nM; EC50 [3]: 53 nM; In vivo activity [1]: ++ (++ refers to 30-50% increase in time until arrhythmia)
H-[D-Hyp^4]AAP-10-NH2,1,28 +/- 10%,–
HPP-PHypGAGKKKKKK-NH2,1,21 +/- 17%,–
HPP-PHypGAGKKKKKK-OH,3,80 +/- 17%,–
[Pro^4]AAP10-NH2,3,–,–
des-Hyp^4-[Asn^5]AAP-10-NH2,2,53 +/- 15%,–
